Target: T1, chicken mPRα (membrane progesterone receptor α) (Gallus gallus, UniProt C6KGD4)
T1 construct: gene PAQR7; membrane fraction or whole cells; band approx. 42 kDa
T1 sequence (C6KGD4 1-346): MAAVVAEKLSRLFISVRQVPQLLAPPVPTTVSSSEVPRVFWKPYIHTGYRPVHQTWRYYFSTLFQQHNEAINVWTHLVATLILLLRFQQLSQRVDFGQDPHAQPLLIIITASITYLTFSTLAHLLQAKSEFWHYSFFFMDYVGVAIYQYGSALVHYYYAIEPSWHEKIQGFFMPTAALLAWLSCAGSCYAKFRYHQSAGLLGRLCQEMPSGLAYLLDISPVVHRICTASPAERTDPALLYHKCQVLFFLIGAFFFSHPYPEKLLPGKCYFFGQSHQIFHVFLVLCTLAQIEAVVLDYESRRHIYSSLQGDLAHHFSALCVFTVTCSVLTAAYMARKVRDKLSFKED
Assay: radioligand saturation binding, Scatchard plot, cell membrane fraction

SMILES: CC(=O)[C@H]1CC[C@H]2[C@@H]3CC[C@H]4C[C@H](O)CC[C@]4(C)[C@H]3CC[C@]12C [compound 2, allopregnanolone]
- Kd: 11.8 ± 3.1 nM

Reference: PMC6850767, “Light-at-night exposure affects brain development through pineal allopregnanolone-dependent mechanisms” (eLife, 2019)
